Results taken from patent US6841519B1, “Isoxazoline derivatives and herbicides containing the same as the active ingredient” (Kumiai Chemical Industry Co., Ltd., priority 1999, dated 2005).

What was measured:
Type in all cases: in vivo
[1] = tested on: Echinochloa crus-galli (L.) Beauv. var. crusgall (Ec); assay: Test for herbicidal effect by upland field soil treatment (Test Example 2), Ec; conditions: application amount (active ingredient) 100 g/10 a, examined at the 21st day from the treatment, index per Table 40
Protocol: (§1) [table] <Test Example 2> Test For Herbicidal Effect By Upland Field Soil Treatment An upland field soil was filed in a plastic pot of 80 cm^2. Seeds of Echinochloa crus-galli (L.) Beauv. var. crusgall (Ec) and Setaria viridis (L.) Beauv. (Se) were sowed, followed by covering with the same soil. Wettable powders produced in accordance with the Formulation 1 were diluted with water and sprayed uniformly: on the soil surface using a small sprayer, in an amount of 100 liters per 10 ares so that the amount of each active ingredient became 100 g per 10 ares. Then, breeding was made in a greenhouse, and the herbicidal effect of each wettable powder was examined at the 21st day from the treatment in accordance with the standard shown in Table 40.

[2] = tested on: Echinochloa oryzicola Vasing. (Eo); assay: Test for herbicidal effect by paddy field soil treatment (Test Example 1); conditions: application amount (active ingredient) 100 g/10 a, examined at the 21st day from the treatment, index per Table 40
Protocol: <Test Example 1> Test For Herbicidal Effect By Paddy Field Soil Treatment A paddy field soil was filled in a plastic pot of 100 cm^2 and subjected to puddling. Then, seeds of Echinochloa oryzicola Vasing. (Eo) were sowed and water was filled in a depth of 3 cm. Next day, wettable powders produced in accordance with the Formulation 1 were diluted with water and dropped on the water surface. The application amount of each wettable powder was 100 g per 10 ares in terms of the active ingredient. Then, breeding was made in a greenhouse, and the herbicidal effect of each wettable powder was examined at the 21st day from the treatment in accordance with the standard shown in Table 40. [table]

[3] = tested on: Echinochloa crus-galli (L.) Beauv. var. crusgalli (Ec); assay: Test for herbicidal effect by upland foliage treatment (Test Example 3); conditions: 100 g/10 a active ingredient, examined at 14th day
Protocol: Test For Herbicidal Effect By Upland Foliage Treatment
An upland field soil was filed in a plastic pot of 80 cm^2. Seeds of Echinochloa crus-galli (L.) Beauv. var. crusgalli (Ec) were sowed. Breeding was made in a greenhouse for 2 weeks. Wettable powders produced in accordance with the Formulation 1 were diluted with water and sprayed on the whole foliage of plants from above the plants using a small sprayer in an amount of 100 liters per 10 ares so that the amount of each active ingredient became 100 g per 10 ares. Then, breeding was made in the greenhouse, and the herbicidal effect of each wettable powder was examined at the 14th day from the treatment in accordance with the standard shown in Table 40.

[4] = tested on: Setaria viridis (L.) Beauv. (Se); assay: Test for herbicidal effect by upland field soil treatment (Test Example 2), Se; conditions: application amount (active ingredient) 100 g/10 a, examined at the 21st day from the treatment, index per Table 40
Protocol: as §1

SMILES	Herbicidal effect to Ec [1]	Herbicidal effect to Eo [2]	Herbicidal effect to Ec [3]	Herbicidal effect to Se [4]
CC1(C)CC(S(=O)(=O)Cc2ccccc2[N+](=O)[O-])=NO1 [Compound 1-142]	5 (A herbicidal effect or phytotoxicity of 90% or more)	5 (A herbicidal effect or phytotoxicity of 90% or more)	4 (A herbicidal effect or phytotoxicity of 70% to less than 90%)	5 (A herbicidal effect or phytotoxicity of 90% or more)
CC1(C)CC(S(=O)(=O)Cc2cccc(C(F)(F)F)c2)=NO1 [Compound 1-158]	5 (A herbicidal effect or phytotoxicity of 90% or more)	5 (A herbicidal effect or phytotoxicity of 90% or more)	5 (A herbicidal effect or phytotoxicity of 90% or more)	5 (A herbicidal effect or phytotoxicity of 90% or more)
COCc1ccccc1CS(=O)(=O)C1=NOC(C)(C)C1 [Compound 1-160]	5 (A herbicidal effect or phytotoxicity of 90% or more)	5 (A herbicidal effect or phytotoxicity of 90% or more)	5 (A herbicidal effect or phytotoxicity of 90% or more)	5 (A herbicidal effect or phytotoxicity of 90% or more)
CC1(C)CC(S(=O)(=O)Cc2cccc(Cl)c2F)=NO1 [Compound 1-184]	5 (A herbicidal effect or phytotoxicity of 90% or more)	5 (A herbicidal effect or phytotoxicity of 90% or more)	4 (A herbicidal effect or phytotoxicity of 70% to less than 90%)	4 (A herbicidal effect or phytotoxicity of 70% to less than 90%)
Cc1cccc(C)c1CS(=O)(=O)C1=NOC(C)(C)C1 [Compound 1-185]	5 (A herbicidal effect or phytotoxicity of 90% or more)	5 (A herbicidal effect or phytotoxicity of 90% or more)	5 (A herbicidal effect or phytotoxicity of 90% or more)	5 (A herbicidal effect or phytotoxicity of 90% or more)
CCOc1c(C)cccc1CS(=O)(=O)C1=NOC(C)(C)C1 [Compound 1-186]	5 (A herbicidal effect or phytotoxicity of 90% or more)	5 (A herbicidal effect or phytotoxicity of 90% or more)	5 (A herbicidal effect or phytotoxicity of 90% or more)	5 (A herbicidal effect or phytotoxicity of 90% or more)
Cc1cccc(CS(=O)(=O)C2=NOC(C)(C)C2)c1F [Compound 1-187]	5 (A herbicidal effect or phytotoxicity of 90% or more)	5 (A herbicidal effect or phytotoxicity of 90% or more)	5 (A herbicidal effect or phytotoxicity of 90% or more)	5 (A herbicidal effect or phytotoxicity of 90% or more)
CCC1(C)CC(S(=O)(=O)Cc2ccccc2)=NO1 (stereo not drawn) [Compound 1-188]	5 (A herbicidal effect or phytotoxicity of 90% or more)	5 (A herbicidal effect or phytotoxicity of 90% or more)	4 (A herbicidal effect or phytotoxicity of 70% to less than 90%)	5 (A herbicidal effect or phytotoxicity of 90% or more)
CCC1(C)CC(S(=O)(=O)Cc2ccccc2Cl)=NO1 (stereo not drawn) [Compound 1-192]	5 (A herbicidal effect or phytotoxicity of 90% or more)	5 (A herbicidal effect or phytotoxicity of 90% or more)	4 (A herbicidal effect or phytotoxicity of 70% to less than 90%)	5 (A herbicidal effect or phytotoxicity of 90% or more)
CCC1(C)CC(S(=O)(=O)Cc2cccc(Cl)c2)=NO1 (stereo not drawn) [Compound 1-193]	5 (A herbicidal effect or phytotoxicity of 90% or more)	5 (A herbicidal effect or phytotoxicity of 90% or more)	5 (A herbicidal effect or phytotoxicity of 90% or more)	4 (A herbicidal effect or phytotoxicity of 70% to less than 90%)
CCC1(C)CC([S+]([O-])Cc2c(F)cccc2F)=NO1 (stereo not drawn) [Compound 1-199, 5-ethyl-3-(2,6-difluorobenzylsulfinyl)-5-methyl-2-isoxazoline]	5 (A herbicidal effect or phytotoxicity of 90% or more)	5 (A herbicidal effect or phytotoxicity of 90% or more)	4 (A herbicidal effect or phytotoxicity of 70% to less than 90%)	5 (A herbicidal effect or phytotoxicity of 90% or more)
CCC1(C)CC(S(=O)(=O)Cc2c(F)cccc2F)=NO1 (stereo not drawn) [Compound 1-200, 5-ethyl-3-(2,6-difluorobenzylsulfonyl)-5-methyl-2-isoxazoline]	5 (A herbicidal effect or phytotoxicity of 90% or more)	5 (A herbicidal effect or phytotoxicity of 90% or more)	4 (A herbicidal effect or phytotoxicity of 70% to less than 90%)	5 (A herbicidal effect or phytotoxicity of 90% or more)
CCC1(C)CC(S(=O)(=O)Cc2ccccc2C)=NO1 (stereo not drawn) [Compound 1-201]	5 (A herbicidal effect or phytotoxicity of 90% or more)	5 (A herbicidal effect or phytotoxicity of 90% or more)	5 (A herbicidal effect or phytotoxicity of 90% or more)	5 (A herbicidal effect or phytotoxicity of 90% or more)
CCC1(C)CC(S(=O)(=O)Cc2cccc(C)c2)=NO1 (stereo not drawn) [Compound 1-202]	5 (A herbicidal effect or phytotoxicity of 90% or more)	5 (A herbicidal effect or phytotoxicity of 90% or more)	4 (A herbicidal effect or phytotoxicity of 70% to less than 90%)	4 (A herbicidal effect or phytotoxicity of 70% to less than 90%)
CCC1(C)CC(S(=O)(=O)Cc2ccccc2C(F)(F)F)=NO1 (stereo not drawn) [Compound 1-336]	5 (A herbicidal effect or phytotoxicity of 90% or more)	5 (A herbicidal effect or phytotoxicity of 90% or more)	5 (A herbicidal effect or phytotoxicity of 90% or more)	5 (A herbicidal effect or phytotoxicity of 90% or more)
CCC1(CC)CC([S+]([O-])Cc2c(F)cccc2F)=NO1 (stereo not drawn) [Compound 1-363]	5 (A herbicidal effect or phytotoxicity of 90% or more)	5 (A herbicidal effect or phytotoxicity of 90% or more)	4 (A herbicidal effect or phytotoxicity of 70% to less than 90%)	4 (A herbicidal effect or phytotoxicity of 70% to less than 90%)
CCC1(CC)CC(S(=O)(=O)Cc2c(F)cccc2F)=NO1 [Compound 1-364]	5 (A herbicidal effect or phytotoxicity of 90% or more)	5 (A herbicidal effect or phytotoxicity of 90% or more)	4 (A herbicidal effect or phytotoxicity of 70% to less than 90%)	5 (A herbicidal effect or phytotoxicity of 90% or more)
CCCC1(C)CC(S(=O)(=O)Cc2c(F)cccc2F)=NO1 (stereo not drawn) [Compound 1-366]	5 (A herbicidal effect or phytotoxicity of 90% or more)	5 (A herbicidal effect or phytotoxicity of 90% or more)	4 (A herbicidal effect or phytotoxicity of 70% to less than 90%)	5 (A herbicidal effect or phytotoxicity of 90% or more)
